Here are results for 15 molecules from patent US10611778B2, “Fused bicyclic inhibitors of menin-MLL interaction” (Janssen Pharmaceutica NV, priority 2016, dated 2020).

pIC50: −log10 of the molar value. Values joined by “and” are separate entries in the source; they are usually repeats but may differ in a detail not shown here. Equal entries are not always repeated. Where two headings read alike, the source gives them in different places.

In assay [1] the test system is MOLM14. Description: Proliferation assay (spheroid assay) MOLM14. It counts as cell-based, human. To be noted: Homo sapiens; for pIC50: MOLM-14, MOLM14, averaged values over all measurements, read-out: Spheroid assay MOLM14 (IC50). The procedure: (§1) The anti-proliferative effect of menin/MLL protein/protein interaction inhibitor test compounds was assessed in human leukemia cell lines. The cell lines MV-4-11 and MOLM14 harbor MLL translocations and express the MLL fusion proteins MLL-AF4 and MLL-AF9, respectively, as well as the wildtype protein from the second allele. […] K562 and KG1 were used as a control cell lines containing two MLL wildtype alleles in order to exclude compounds that display general cytotoxic effects.
(§2) MV-4-11 and MOLM14 were cultured in RPMI-1640 (Sigma Aldrich) supplemented with 10% fetal bovine serum (HyClone), 2 mM L-glutamine (Sigma Aldrich) and 50 μg/ml gentamycin (Gibco). K562 were propagated in RPMI-1640 (Sigma Aldrich) supplemented with 20% fetal bovine serum (HyClone), 2 mM L-glutamine (Sigma Aldrich) and 50 μg/ml gentamycin (Gibco). KG1 were cultured in Iscove's MDM (Gibco) supplemented with 20% fetal bovine serum (HyClone), 2 mM L-glutamine (Sigma Aldrich) and 50 μg/ml gentamycin (Gibco).
(§3) In order to assess the anti-proliferative effects, 1,500 MV-4-11, 300 MOLM14, 750 K562 or 1,300 KG1 cells were seeded in 200 μl media per well in 96-well round bottom, ultra-low attachment plates (Costar, catalogue number 7007). Cell seeding numbers were chosen based on growth curves to ensure linear growth throughout the experiment. Test compounds were added at different concentrations and the DMSO content was normalized to 0.3%. Cells were incubated for 8 d at 37° C. and 5% CO2. Spheroid like growth was monitored in real-time by live-cell imaging (IncuCyteZOOM, Essenbio, 4× objective) acquiring one image every four hours for 8 d. Confluence (%) as a measure of spheroid size was determined using an integrated analysis tool.
(§4) In order to determine the cumulative effect of the test compounds over time, the area under the curve (AUC) in a plot of confluence against time was calculated. Confluence at the beginning of the experiment (t=0) was used as baseline for the AUC calculation.
(§5) Absolute IC50 values were calculated according to the following procedure: % Control=(AUC sample/AUC control)*100
(§6) AUC control=mean AUC of control values (cells without compound/DMSO as vehicle control)
(§7) A non-linear curve fit was applied using the least squares (ordinary) fit method to the plot of % control versus compound concentration. Based on this, the absolute IC50 value (half maximal inhibitory concentration of the test compound causing an anti-proliferative effect of 50% relative to the vehicle control) was calculated.

The target of assay [2] is T1, Menin/MLL (terbium chelate-labeled menin, FITC-MBM1 peptide) (Homo sapiens, UniProt O00255, T541A).
T1 construct: Menin (a.a. 1-610-6×his tag) was labeled with terbium cryptate as follows
T1 sequence (O00255 with tags, fused parts or gaps T541A): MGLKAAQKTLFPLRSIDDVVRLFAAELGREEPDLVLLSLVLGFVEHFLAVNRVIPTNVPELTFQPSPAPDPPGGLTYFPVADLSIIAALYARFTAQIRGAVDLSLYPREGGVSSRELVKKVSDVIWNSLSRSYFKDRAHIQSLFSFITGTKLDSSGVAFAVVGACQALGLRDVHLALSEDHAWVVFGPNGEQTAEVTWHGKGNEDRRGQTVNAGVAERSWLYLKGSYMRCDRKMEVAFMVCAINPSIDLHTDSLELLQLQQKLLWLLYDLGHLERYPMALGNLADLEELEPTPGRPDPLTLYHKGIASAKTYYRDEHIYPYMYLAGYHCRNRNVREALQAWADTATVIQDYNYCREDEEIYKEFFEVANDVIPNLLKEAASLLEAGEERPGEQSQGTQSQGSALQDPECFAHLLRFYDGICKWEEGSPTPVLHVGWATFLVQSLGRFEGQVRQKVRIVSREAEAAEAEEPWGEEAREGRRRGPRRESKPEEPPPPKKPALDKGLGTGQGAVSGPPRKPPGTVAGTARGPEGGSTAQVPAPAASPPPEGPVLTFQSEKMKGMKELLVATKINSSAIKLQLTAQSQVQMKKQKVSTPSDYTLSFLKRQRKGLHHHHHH
Description: Menin/MLL homogenous time-resolved fluorescence (HTRF) assay. To be noted: for pIC50: averaged values over all measurements, read-out: Menin HTRF assay (IC50). It counts as binding. The gist of the method:
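Compound preincubated 5 min with terbium-cryptate-labeled menin (aa 1-610, His-tagged; 100 pM final), then 75 nM FITC-MBM1 peptide added, 15 min at ambient temperature; 0.5% DMSO, Tris pH 7.5 buffer. HTRF ratio 520/490 nm; % inhibition vs saturating competitor, IC50 from 11-point three-fold titration from 31 μM.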

The test system of assay [3] is MV-4-11. Description: Proliferation assay (spheroid assay) MV-4-11. Format: cell-based, human. To be noted: for pIC50: Homo sapiens, MV4-11, MV-4-11, averaged values over all measurements, read-out: Spheroid assay MV-4-11 (IC50). The method, boiled down: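 Cells were grown as spheroids in ultra-low attachment round-bottom wells with compound (0.3% DMSO) for 8 d at 37 °C, imaged every 4 h, with confluence as spheroid size. AUC of confluence versus time (t=0 baseline) was expressed as % of DMSO control, and absolute IC50 came from a least-squares nonlinear fit.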

The test system of assay [4] is KG1. The assay can be described thus: Proliferation assay (spheroid assay) KG1 control cell line. Format: cell-based. To be noted: Homo sapiens, KG-1, averaged values over all measurements. The procedure: as §1, §2, §3, §4, §5, §6, §7
Assay [5] concerns K562. The assay can be described thus: Proliferation assay (spheroid assay) K562 control cell line. Format: cell-based. The settings on record: Homo sapiens; for pIC50: K562 control cell line, averaged values over all measurements, read-out: Spheroid assay K562 (IC50). The procedure:
as §1, §2, §3, §4, §5, §6, §7

Assay [6] concerns the target T2, Menin/MLL (menin, FITC-MBM1 peptide) (Homo sapiens, UniProt O00255, T541A).
T2 construct: 6xHis (C)
T2 sequence (O00255 with tags, fused parts or gaps T541A): T1 sequence (O00255 with tags, fused parts or gaps T541A)
Description: Menin/MLL fluorescence polarization (FP) assay. Format: binding. The settings on record: averaged values over all measurements; read-out: Menin FP assay (IC50). The procedure: Pharmacological Part 1) Menin/MLL Fluorescence Polarization Assay
To a non-surface binding, black 384-well microtiter plate was added 50 nL 160× test compound in DMSO and 4 μL 2× menin in assay buffer (40 mM Tris-HCl, pH 7.5, 50 mM NaCl, 1 mM DTT and 0.001% Tween 20). After incubation of test compound and menin for 10 min at ambient temperature, 4 μL 2×FITC-MBM1 peptide (FITC-β-alanine-SARWRFPARPGT-NH2) in assay buffer was added, the microtiter plate centrifuged at 1000 rpm for 1 min and the assay mixtures incubated for 15 min at ambient temperature. The relative amount of menin: FITC-MBM1 complex present in an assay mixture is determined by measuring the fluorescence polarization (FP) of the FITC label with a BMG Pherastar plate reader (ex. 485 nm/em. 520 nm) at ambient temperature. The final concentrations of reagents in the binding assay are 100 nM menin, 5 nM FITC-MBM1 peptide and 0.625% DMSO in assay buffer. Dose-response titrations of test compounds are conducted using an 11 point, three-fold serial dilution scheme, starting at 31 μM.
Compound potencies were determined by first calculating % inhibition at each compound concentration according to equation 1: % inhibition=((HC−LC)−(FP^compound−LC))/(HC−LC))*100 (Eqn 1)
Where LC and HC are the FP values of the assay in the presence or absence of a saturating concentration of a compound that competes with FITC-MBM1 for binding to menin, and FP^compound is the measured FP value in the presence of the test compound. HC and LC FP values represent an average of at least 16 replicates per plate.
Where Bottom and Top are the lower and upper asymptotes of the dose-response curve, respectively, IC50 is the concentration of compound that yields 50% inhibition of signal and h is the Hill coefficient.

With `Cc1ccc(CN2CC[C@@H]3CN(c4ncnc5sc(CC(F)(F)F)cc45)C[C@@H]3C2)cn1` (single isomer, unassigned) [Compound 40], the pIC50 in assay [1] was 5.80; in assay [2], 7.60; in assay [3] it was 6.59; in assay [4], 5.09.

With `FC(F)(F)Cc1cc2c(N3C[C@H]4CCN(Cc5cccnc5Cl)C[C@H]4C3)ncnc2s1` (single isomer, unassigned) [Compound 41], the pIC50 in assay [1] is 5.92; in assay [2], 7.13; in assay [3], 6.08; in assay [4], 5.35.

Consider `[2H]C([2H])(c1ccccc1)N1CC[C@@H]2CN(c3ncnc4sc(CC(F)(F)F)cc34)CC[C@@H]21` (single isomer, unassigned) [Compound 5], for which the IC50 is greater than 15 µM in assay [5] (192 h, K562, 8 d, individual measurements (not averaged), read-out: (2) Spheroid assay K562 (IC50 (μM))); 4.3 µM in assay [1] (MOLM-14, 192 h, MOLM14, 8 d, individual measurements (not averaged), read-out: (2) Spheroid assay MOLM14 (IC50 (μM))); 9 nM in assay [2] (individual measurements (not averaged), read-out: (3) Menin HTRF assay (IC50 (nM))); 2.1 µM and > 15 µM in assay [3] (MV-4-11, 8 d, individual measurements (not averaged), read-out: (2) Spheroid assay MV-4-11 (IC50 (μM))).

Take `COc1ccc(CN2CC[C@@H]3CN(c4ncnc5sc(CC(F)(F)F)cc45)C[C@@H]3C2)cn1` (single isomer, unassigned) [Compound 45]: the pIC50 is 5.74 in assay [1], 7.80 in assay [2], 6.55 in assay [3] and less than 4.82 in assay [4].

With `FC(F)(F)Cc1cc2c(N3C[C@H]4CCN(Cc5ccncc5)C[C@H]4C3)ncnc2s1` (single isomer, unassigned) [Compound 64], the pIC50 is 6.11 in assay [1], 7.60 in assay [2], 6.26 in assay [3] and 5.08 in assay [4].

For `COc1cc(CN2CC[C@@H]3CN(c4ncnc5sc(CC(F)(F)F)cc45)C[C@@H]3C2)ccn1` (single isomer, unassigned) [Compound 63], the pIC50 in assay [1] is 6.10; in assay [2], 7.21; in assay [3], 6.19; in assay [4], 5.02.

For the molecule `FC(F)(F)Cc1cc2c(N3C[C@H]4CCN(Cc5ccc(Cl)nc5)C[C@H]4C3)ncnc2s1` (single isomer, unassigned) [Compound 42], the negative-log IC50 (pIC50) is 5.80 in assay [1], 7.68 in assay [2], 6.33 in assay [3] and less than 4.82 in assay [4].

On to `CCCN1CC[C@@H]2CN(c3ncnc4sc(CC(F)(F)F)cc34)C[C@@H]2C1` (single isomer, unassigned) [Compound 57], for which the pIC50 was 5.68 in assay [1], 7.17 in assay [2], 6.23 in assay [3] and less than 4.82 in assay [4].

`Cc1ncccc1CN1CC[C@@H]2CN(c3ncnc4sc(CC(F)(F)F)cc34)C[C@@H]2C1` (single isomer, unassigned) [Compound 60]: the pIC50 in assay [1] is 6.66; in assay [2], 7.02; in assay [3] it was 6.18; in assay [4], 5.74.

As to `CC(C)(C)OC(=O)N1CCC(CN2CC[C@@H]3CN(c4ncnc5sc(CC(F)(F)F)cc45)C[C@@H]3C2)CC1` (single isomer, unassigned) [Compound 20], the pIC50 in assay [5] was less than 4.82; in assay [1], 6.01; in assay [2], 7.51; in assay [3] it was 6.42.

Take `Fc1ccc(CN2CC[C@@H]3CN(c4ncnc5sc(CC(F)(F)F)cc45)C[C@@H]3C2)cn1` (single isomer, unassigned) [Compound 37]: the pIC50 in assay [1] is 5.89; in assay [2], 7.39; in assay [3], 6.32; in assay [4], less than 4.82.

Regarding `Fc1ccccc1CN1CC[C@@H]2CN(c3ncnc4sc(CC(F)(F)F)cc34)CC[C@@H]21` (single isomer, unassigned) [Compound 7], the pIC50 is 6.20 in assay [6], less than 4.82 in assay [5], 4.84 in assay [1] and 6.29 in assay [2].

Regarding `FC(F)(F)Cc1cc2c(N3C[C@H]4CCN(CC5CCNCC5)C[C@H]4C3)ncnc2s1` (single isomer, unassigned) [Compound 70B], the negative-log IC50 (pIC50) is less than 4.82 in assay [5], 5.70 in assay [1], 7.62 in assay [2] and 6.55 in assay [3].

Consider `O=c1ccc(CN2CC[C@@H]3CN(c4ncnc5sc(CC(F)(F)F)cc45)C[C@@H]3C2)c[nH]1` (single isomer, unassigned) [Compound 67], for which the pIC50 was 5.49 in assay [1], 7.57 in assay [2], 6.49 in assay [3] and less than 4.82 in assay [4].

Regarding `Cc1cncc(CN2CC[C@@H]3CN(c4ncnc5sc(CC(F)(F)F)cc45)C[C@@H]3C2)c1` (single isomer, unassigned) [Compound 39], the pIC50 was 6.78 in assay [2], 6.17 in assay [3] and 5.60 in assay [4].
